Results on two molecules are retold here after patent US7867948B2, “Use of guanidine compounds as physiological strengthening agents in the form of nutritional supplements, animal feed additives, in cosmetic preparations and as plant stimulants” (Alzchem Trostberg GmbH, priority 2004, dated 2011).

For one series, the system named is rats. The following applies: experiments of GB 1 468 998; cited from earlier work.
Series [1] deals with chickens raised for market. Kind of series: Feed for chickens raised for market (feed additive trial). It is filed as in vivo. Set-up: dose or concentration left out as unconfirmed. Particulars: 0.2 wt.-% added to air-dried food. Here is the method: 2. Animal Feed Additive • 2.1 A formulation consisting of 5,000 mg creatinol-O -phosphate and 5,000 mg inulin was added to a typical formula for feed pellets as a food supplement for horses. • 2.2 A formulation consisting of 7,000 mg creatinol sulfate, 750 mg carnitine tartrate, 100 mg sucrose stearate, 160 mg talc, and 1,090 mg fructose was added to the base mixture for making dog biscuits. • 2.3 As a master batch, the following formulation was added to a regular commercial canned cat food mixture: 3,000 mg creatinol sulfate, 3,000 mg creatine, 40 mg magnesium stearate, 25 mg carboxymethylcellulose and 135 mg lactose. • 2.4 Feed for chickens raised for market
In addition the feed consumption was about 2 to 3% less than in former feeding methods.

The conditions of series [2]: after administration; Arzneimittelforschung 1979, 29 (9A) 1477-79; cited from earlier work.

`CN(CCO)C(=N)N.NC(CC(=O)O)C(=O)O` (stereo not shown) [creatinol aspartate]: the swimming activity increased in the series on rats is reported as 30%.
Take `CN(CCOP(=O)(O)O)C(=N)N` [creatinol-O-phosphate]: the meat quality result in series [1] (41 days feeding time) was “improved quality”. The “increase in the final weight versus former feeding methods without addition of creatinol” value in series [1] (after 41 days feeding time) is recorded as 4%. Besides, in series [2], the “creatinine levels in the urine” value was “increase”.
